± gives the expanded uncertainty stated by the source.
Assays:
[1] = xn = mol fraction of the nth substance listed; settings: 101 kPa, Liquid
[2] = refractive index (Na D-line) (dimensionless); xn = mol fraction of the nth substance listed; settings: 101 kPa, Liquid, Standard Abbe refractometry
[3] = 101 kPa, Liquid
[4] = refractive index (Na D-line) (dimensionless); settings: 101.33 kPa, Liquid, Standard Abbe refractometry

CCCCCl [1-chlorobutane] + C1COCCO1
Settings	mass density, [1] [kg/m3]	refractive index, [2]
298.15 K, x2 = 0	880.69 ± 0.77	1.3995 ± 0.00066
298.15 K, x2 = 0.0418	885.54 ± 0.75	1.40011 ± 0.0007
298.15 K, x2 = 0.1141	894.14 ± 0.71	1.40119 ± 0.0007
298.15 K, x2 = 0.2426	910.06 ± 0.63	1.40328 ± 0.00069
298.15 K, x2 = 0.3358	922.21 ± 0.57	1.40491 ± 0.00069
298.15 K, x2 = 0.4518	938.11 ± 0.5	1.40709 ± 0.00069
298.15 K, x2 = 0.5509	952.44 ± 0.44	1.40908 ± 0.00068
298.15 K, x2 = 0.5914	958.52 ± 0.42	1.40994 ± 0.00068
298.15 K, x2 = 0.738	981.64 ± 0.33	1.41323 ± 0.00068
298.15 K, x2 = 0.8235	995.99 ± 0.28	1.41529 ± 0.00059
298.15 K, x2 = 0.9104	1011.29 ± 0.29	1.41752 ± 0.00068
298.15 K, x2 = 0.987	1025.41 ± 0.33	1.4196 ± 0.00068
313.15 K, x2 = 0	863.82 ± 0.82	1.39133 ± 0.00066
313.15 K, x2 = 0.0344	867.83 ± 0.8	1.39188 ± 0.00066
313.15 K, x2 = 0.117	877.61 ± 0.75	1.39321 ± 0.00065
313.15 K, x2 = 0.2279	891.26 ± 0.69	1.39506 ± 0.00066
313.15 K, x2 = 0.3499	907.15 ± 0.62	1.39732 ± 0.00068
313.15 K, x2 = 0.4442	920.15 ± 0.56	1.39917 ± 0.0007
313.15 K, x2 = 0.55	935.51 ± 0.49	1.40138 ± 0.00074
313.15 K, x2 = 0.645	950.02 ± 0.44	1.40351 ± 0.00079
313.15 K, x2 = 0.7456	966.15 ± 0.38	1.40591 ± 0.00084
313.15 K, x2 = 0.8238	979.22 ± 0.33	1.40786 ± 0.00059
313.15 K, x2 = 0.9143	995.01 ± 0.27	1.41024 ± 0.00096
313.15 K, x2 = 0.9636	1003.94 ± 0.27	1.41159 ± 0.001

CCCCl [1-chloropropane]
Settings	mass density, [3] [kg/m3]	refractive index, [4]
298.15 K	884.26 ± 0.77	1.3856 ± 0.0007
313.15 K	865.14 ± 0.82	1.37673 ± 0.0007

C1COCCO1 [1,4-dioxane]
Settings	mass density, [3] [kg/m3]	refractive index, [4]
298.15 K	1027.87 ± 0.34	1.41995 ± 0.00058
313.15 K	1010.69 ± 0.28	1.41264 ± 0.00058

C1COCCO1 [1,4-dioxane] + CCCCCl
x1 = 1
Settings	mass density, [1] [kg/m3]	refractive index, [2]
298.15 K	1027.87 ± 0.34	1.41995 ± 0.00058
313.15 K	1010.69 ± 0.28	1.41264 ± 0.00058

CC(C)(C)Cl [2-chloro-2-methylpropane]
Settings	mass density, [3] [kg/m3]	refractive index, [4]
298.15 K	836.45 ± 0.9	1.38224 ± 0.00071
313.15 K	818.31 ± 0.95	1.37314 ± 0.00071

CCC(C)Cl (stereo not given) [2-chlorobutane] + C1COCCO1
Settings	mass density, [1] [kg/m3]	refractive index, [2]
298.15 K, x2 = 0	867.4 ± 0.81	1.39404 ± 0.00067
298.15 K, x2 = 0.0417	872.75 ± 0.79	1.3949 ± 0.0007
298.15 K, x2 = 0.1061	881.2 ± 0.75	1.3963 ± 0.0007
298.15 K, x2 = 0.2514	901.2 ± 0.65	1.3996 ± 0.00069
298.15 K, x2 = 0.3493	915.42 ± 0.59	1.40193 ± 0.00069
298.15 K, x2 = 0.4771	934.94 ± 0.51	1.40512 ± 0.00068
298.15 K, x2 = 0.5563	947.61 ± 0.46	1.40721 ± 0.00068
298.15 K, x2 = 0.6462	962.58 ± 0.4	1.40961 ± 0.00068
298.15 K, x2 = 0.7343	977.89 ± 0.34	1.41208 ± 0.00068
298.15 K, x2 = 0.8244	994.21 ± 0.28	1.41466 ± 0.00068
298.15 K, x2 = 0.9112	1010.56 ± 0.29	1.41725 ± 0.00068
298.15 K, x2 = 0.9891	1025.72 ± 0.33	1.41962 ± 0.00068
313.15 K, x2 = 0	850.13 ± 0.86	1.38573 ± 0.00067
313.15 K, x2 = 0.0475	856.2 ± 0.83	1.38674 ± 0.00066
313.15 K, x2 = 0.1318	867.4 ± 0.78	1.38865 ± 0.00067
313.15 K, x2 = 0.239	882.36 ± 0.71	1.3912 ± 0.00067
313.15 K, x2 = 0.3413	897.3 ± 0.65	1.39378 ± 0.00069
313.15 K, x2 = 0.4574	915.03 ± 0.57	1.39683 ± 0.00071
313.15 K, x2 = 0.5546	930.53 ± 0.51	1.39949 ± 0.00073
313.15 K, x2 = 0.6429	945.17 ± 0.45	1.40195 ± 0.00075
313.15 K, x2 = 0.7326	960.65 ± 0.39	1.40449 ± 0.00078
313.15 K, x2 = 0.8209	976.52 ± 0.34	1.40709 ± 0.00082
313.15 K, x2 = 0.9121	993.58 ± 0.28	1.40985 ± 0.00086
313.15 K, x2 = 0.9525	1001.37 ± 0.26	1.41113 ± 0.00093

CC(C)(C)Cl [2-chloro-2-methylpropane] + C1COCCO1
Settings	mass density, [1] [kg/m3]	refractive index, [2]
298.15 K, x2 = 0	836.45 ± 0.9	1.38224 ± 0.00071
298.15 K, x2 = 0.0458	844.01 ± 0.87	1.38393 ± 0.0007
298.15 K, x2 = 0.1594	862.91 ± 0.79	1.38814 ± 0.0007
298.15 K, x2 = 0.2576	879.78 ± 0.72	1.39182 ± 0.00069
298.15 K, x2 = 0.3925	904.15 ± 0.62	1.39689 ± 0.00069
298.15 K, x2 = 0.4632	917.47 ± 0.56	1.39956 ± 0.00068
298.15 K, x2 = 0.5569	935.61 ± 0.49	1.40312 ± 0.00068
298.15 K, x2 = 0.6611	956.29 ± 0.42	1.40709 ± 0.00068
298.15 K, x2 = 0.7458	973.39 ± 0.35	1.41033 ± 0.00068
298.15 K, x2 = 0.8395	992.69 ± 0.29	1.4139 ± 0.00068
298.15 K, x2 = 0.9222	1010.32 ± 0.29	1.41703 ± 0.00068
298.15 K, x2 = 0.9639	1019.57 ± 0.32	1.41861 ± 0.00068
313.15 K, x2 = 0	818.31 ± 0.95	1.37314 ± 0.00071
313.15 K, x2 = 0.0485	826.29 ± 0.92	1.37502 ± 0.00071
313.15 K, x2 = 0.0903	833.3 ± 0.89	1.37667 ± 0.00071
313.15 K, x2 = 0.2192	855.58 ± 0.79	1.38175 ± 0.0007
313.15 K, x2 = 0.2827	866.86 ± 0.75	1.38423 ± 0.00071
313.15 K, x2 = 0.3966	887.59 ± 0.67	1.3888 ± 0.0007
313.15 K, x2 = 0.5029	907.54 ± 0.59	1.39301 ± 0.00069
313.15 K, x2 = 0.6039	927.14 ± 0.51	1.39702 ± 0.00069
313.15 K, x2 = 0.7025	946.96 ± 0.44	1.40092 ± 0.00068
313.15 K, x2 = 0.8138	970.21 ± 0.36	1.40529 ± 0.00067
313.15 K, x2 = 0.8959	987.89 ± 0.3	1.4085 ± 0.00066
313.15 K, x2 = 0.9612	1002.17 ± 0.26	1.41105 ± 0.0007

From the NIST ThermoML archive (doi:10.1016/j.jct.2006.05.003)
